In patent publication US5739284A, “Compositions corresponding to a high-affinity glutamate transporter molecule and methods for making and using same” (Brigham and Women's Hospital, Inc., priority 1995, dated 1998):
Read-outs that look alike come from different tables or passages of the source.

Columns and labels:
[1] = molecular target: T1, Human High Affinity Glutamate Transporter HEAAC1 (Homo sapiens, UniProt P43005); assay: inhibition of L-glutamate-evoked currents in oocytes expressing human carrier; format: cell-based; design: expressed in transfected cells; host or cells: Xenopus laevis oocytes (cRNA injection; human kidney clone K-3); details: for inhibition of the current induced by L-glutamate: L-glutamate 10-1,000 μM, DHK 1 mM; for order of sensitivity to inhibitors based on IC50 values: current induced by 100 μM L-glutamate
T1 sequence (P43005 1-524 V96L/K170N/P172A/L260H): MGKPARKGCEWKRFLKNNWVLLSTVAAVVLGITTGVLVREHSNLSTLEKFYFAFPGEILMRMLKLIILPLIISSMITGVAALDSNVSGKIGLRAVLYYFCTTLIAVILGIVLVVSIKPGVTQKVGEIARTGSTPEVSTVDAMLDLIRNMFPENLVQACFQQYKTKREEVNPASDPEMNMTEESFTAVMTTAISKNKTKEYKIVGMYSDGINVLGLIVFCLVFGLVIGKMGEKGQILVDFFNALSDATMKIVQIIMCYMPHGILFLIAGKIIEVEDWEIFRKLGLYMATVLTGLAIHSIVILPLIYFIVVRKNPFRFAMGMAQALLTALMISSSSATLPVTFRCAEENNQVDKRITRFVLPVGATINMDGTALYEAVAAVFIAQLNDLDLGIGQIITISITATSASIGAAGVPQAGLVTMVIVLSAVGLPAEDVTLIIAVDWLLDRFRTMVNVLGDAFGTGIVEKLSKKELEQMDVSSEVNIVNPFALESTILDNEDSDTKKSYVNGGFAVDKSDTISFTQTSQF
Text: (§1) The glutamate evoked currents were first measured without addition of inhibitor. […] Calculation of KI values was based on the kinetics for competitive inhibition.

[2] = test system: synaptosomal L-glutamate uptake; details: Robinson et al. / previously known; cited from earlier work
[3] = molecular target: T1, Human High Affinity Glutamate Transporter HEAAC1; assay: substrate-evoked currents in oocytes expressing human carrier; details: for inward currents induced: AAD at 50 μM, DHK up to 1 mM
Text: as §1
Oocytes were used for two-microelectrode voltage-clamping as described above and command potentials were applied and controlled by an IBM-compatible computer via the software CLAMPEX from pCLAMP (version 5.5 Axon Instruments, CA). The oocyte membrane was held at -50 mV and pulsed to the test potential for […] followed by a 1 sec interpulse interval at the holding potential of -50 mV before application of the next pulse. Current was low-pass filtered at […], digitized at 200 μsec and saver on the computer. Steady-state currents were obtained by averaging the current between 72 and 76 msec.

[4] = molecular target: T2, rabbit derived excitatory amino acid carrier (Oryctolagus cuniculus, UniProt P31597); assay: inhibition of current evoked by L-glutamate in oocytes expressing rabbit EAAC1; format: cell-based
T2 construct: ID No. 4; expressed in transfected cells; host or cells: Xenopus laevis oocytes injected with cRNA (25 ng/oocyte)
T2 sequence (P31597 1-524): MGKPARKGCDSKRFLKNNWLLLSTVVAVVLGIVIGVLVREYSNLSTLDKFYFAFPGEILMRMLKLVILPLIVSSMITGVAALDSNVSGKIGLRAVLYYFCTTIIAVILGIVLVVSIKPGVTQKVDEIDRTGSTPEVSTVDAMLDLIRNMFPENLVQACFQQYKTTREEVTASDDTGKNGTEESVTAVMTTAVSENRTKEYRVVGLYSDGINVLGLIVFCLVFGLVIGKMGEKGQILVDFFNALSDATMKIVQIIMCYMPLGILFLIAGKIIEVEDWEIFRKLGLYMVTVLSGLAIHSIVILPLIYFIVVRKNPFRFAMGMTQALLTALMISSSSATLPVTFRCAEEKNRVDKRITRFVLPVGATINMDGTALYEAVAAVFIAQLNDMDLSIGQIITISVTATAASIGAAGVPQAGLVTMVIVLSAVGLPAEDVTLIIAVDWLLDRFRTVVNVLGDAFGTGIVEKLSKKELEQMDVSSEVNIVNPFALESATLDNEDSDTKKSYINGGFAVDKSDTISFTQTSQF
Protocol: (§2) Xenopus laevis oocytes were injected with cRNA (25 ng/oocyte) encoding for the excitatory amino acid carrier protein derived from rabbit as described in Example 1. Electrophysiological measurements were performed 3-4 days after injection using a conventional two-microelectrode voltage clamp method (Axoclamp-2A, Axon Instruments, CA).
The standard bath solution (ND 96) contained 96 mM NaCl, 2 mM KCl, 1.8 mM CaCl2, 1.0 mM MgCl2 and 5 mM HEPES pH 7.4 The recording chamber was perfused with bath solution. Current responses of Xenopus laevis oocytes injected with cRNA coding for the excitatory amino acid carrier protein and fragments thereof to bath applied 100 μM substrates are illustrated in FIG. 7.
Example 7 illustrates the application of the electrophysiological features of the excitatory amino acid carrier protein, derived from rabbit, described in Example 6 in the screening of drugs to enhance or inhibit the protein. The Xenopus laevis oocytes was injected with rabbit derived excitatory amino acid carrier cRNA and processed as described in Example 6. […] Robinson, M. B., Hunter-Ensor, M. & Sinor, J., "Pharmacologically distinct sodium-dependentL-[3H]glutamate transport process in rat brain," Brain Research 544:196-202 (1991).

[5] = molecular target: T3, excitatory amino acid carrier protein (EAAC1) derived from rabbit (Oryctolagus cuniculus, UniProt P31597); assay: uptake of 14C-L-glutamate or 14C-L-aspartate by Xenopus oocytes injected with rabbit EAAC1 cRNA; format: cell-based; details: carrier protein of Seq. ID No. 4
T3 sequence (P31597 1-524): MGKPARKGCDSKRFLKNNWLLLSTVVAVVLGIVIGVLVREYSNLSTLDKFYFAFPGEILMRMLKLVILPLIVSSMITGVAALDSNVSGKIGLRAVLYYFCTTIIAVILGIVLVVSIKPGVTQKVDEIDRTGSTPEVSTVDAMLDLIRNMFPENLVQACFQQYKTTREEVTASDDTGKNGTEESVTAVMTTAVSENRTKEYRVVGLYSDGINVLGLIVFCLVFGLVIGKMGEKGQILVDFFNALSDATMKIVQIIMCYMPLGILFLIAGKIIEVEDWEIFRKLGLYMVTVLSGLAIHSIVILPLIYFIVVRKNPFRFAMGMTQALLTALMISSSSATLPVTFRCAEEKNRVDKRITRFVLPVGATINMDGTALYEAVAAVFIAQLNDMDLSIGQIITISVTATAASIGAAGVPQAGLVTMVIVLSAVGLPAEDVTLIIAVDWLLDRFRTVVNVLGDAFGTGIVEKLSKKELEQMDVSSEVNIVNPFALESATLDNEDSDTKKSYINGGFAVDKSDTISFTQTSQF
Protocol: Poly(A)^+ RNA was isolated and injected into collagenase-treated and manually-defolliculated Xenopus laevis oocytes.
All uptakes in this and the following figures were performed with 6-8 oocytes, 3 days after injection. […] For the sodium-free medium, sodium chloride was replaced by Choline-chloride. RNA-injected oocytes were injected with 25 ng cRNA in 50 nl.
The solutions described above were modified to the extent that acetate ion was substituted for chloride ion.

[6] = test system: excitatory amino acid carrier protein derived from rabbit; assay: effect of external K+ on current evoked by L-glutamate; format: cell-based; details: 50 μM L-glutamate, 0-50 mM K+, -30 mV, FIG. 10
Protocol: as §2
The bath medium were prepared containing potassium ion concentrations in concentrations ranging from 0 mM-50 mM. The bath media were held at a holding potential of -30 mV, and normalized to the current measured on the same oocyte (the value at 0 mM K^+ is 100%). Consecutive current measurements were made on single oocytes after changing to bath medium containing the appropriate K^+ concentration. […] The bath medium contained z mM KCl (where z=0-50), 50-z mM choline Cl, 50 mM NaCl, 1.8 mM CaCl2, 1.0 mM MgCl2, 10 mM BaCl2, 5 mM HEPES pH 7.4.

SMILES | inhibition of the current induced by L-glutamate [1] | order of sensitivity to inhibitors based on IC50 values [1] | inhibition of synaptosomal L-glutamate uptake [2] | inward currents induced [3] | IC50 [4] | also measured
N[C@H](C(=O)O)[C@H](O)C(=O)O (relative stereo) [THA, DL-threo-β-hydroxyaspartate] | potent inhibitors | THA>PDC>>AAA>DHK | strong inhibitor | large inward currents | 0.0071 mM | IC50 ([1]; IC50, L-Glu = 100 um, HEAAC1, L-Glu = 100 um): 28 ± 0.8 µM; substrate of the carrier / effect on transport [3]: transport substrates
N[C@@H](CCCC(=O)O)C(=O)O [AAD, L-α-aminoadipate] |  | THA>PDC>>AAA>DHK |  |  | 0.165 mM | Ki ([1]; HEAAC1, based on the kinetics for competitive inhibition): ~20 µM
CC(C)[C@H]1CN[C@H](C(=O)O)[C@H]1CC(=O)O [DHK, dihydrokainate] | did not inhibit the current efficiently | THA>PDC>>AAA>DHK | less effective inhibitors | did not induce significant currents |  | inhibition at 1000 µM ([1]; read-out: inhibition at 1 mM DHK (IC50)): 6.7%; IC50 ([4]; rabbit EAAC1, value in mM, read-out: IC50, inhibition of glutamate induced inward currents): > 1 mM
NC(=O)CC[C@H](N)C(=O)O [Glutamine] |  |  |  |  |  | activity for glutamine transport [5]: slight activity
[K+] [K^+, potassium ion] |  |  |  |  |  | inhibition of L-glutamate evoked current by external K+ [6]: greater degree of inhibition of current at higher K^+ concentration
